Entries after “also recorded” stand apart in the source; their conditions may differ.
Columns and labels:
primary DLBCL cells = test: Apoptosis of primary DLBCL cells, annexin V; format: cell-based; conditions: primary cells from two DLBCL patients, 24 hours
Procedure: The primary cancer cells, prepared from two DLBCL patients and grown in culture medium for seven days, were seeded at 4.5×10^5 cells/mL and treated with the indicated concentrations of NSC697923 for 24 hours. The apoptotic cells were analyzed as described in FIG. 7C. Shown are the averages from two independent experiments.
Apoptosis was assayed using the 7AAD/annexin V apoptosis kit (BD Bioscience) as previously described (Kim et al., “Protein Kinase C-Associated Kinase is Required for NF-kappaB Signaling and Survival in Diffuse Large B-Cell Lymphoma Cells,” Blood 111:1644-1653 (2008), which is hereby incorporated by reference in its entirety). Analysis of the cell cycle distribution of the treated cells was carried out with propidium iodide (PI) and BrdU double staining as previously described (DeRan et al., “Assessing G1-to-S-Phase Progression after Genotoxic Stress,” Methods Mol. Biol. 782:221-230 (2011) and Su et al., “DNA Damage Induces Downregulation of Histone Gene Expression Through the G1 Checkpoint Pathway,” EMBO. J. 23:1133-1143 (2004), each of which is hereby incorporated by reference in its entirety).

[1] = tested on: PMA-induced NF-κB activation in 293T-NF-luc cells; test: NF-κB luciferase reporter assay, PMA stimulation; format: cell-based; conditions: PMA 100 ng/ml, 6 hours
Procedure: In FIG. 1B, 293T-NF-luc cells were pretreated with the indicated concentrations of NSC697923 or DMSO (final concentration 0.2%; control) for 1 hour. The cells were then stimulated with PMA (100 ng/ml) or TNFα(10 ng/ml) for 6 hours, and the green fluorescence (from GFP for normalization) and luciferase activity in the cell lysate were measured. Data were expressed as the percentage activity of the control (mean+/−standard deviation (SD); n=3). […] The cells were harvested at the indicated times after stimulation, and phosphorylation of IKK and IκBα were analyzed by western blotting. Analysis of actin was used as the loading control.
FIGS. 2A-2D show the effect of NSC697923 related compounds on NF-κB activation induced by PMA. […]
HEK293T cells were transfected with the pNF-κB luciferase reporter construct, which contains four copies of the NF-κB binding site upstream of firefly luciferase gene (Moran et al., “Protein Kinase C-Associated Kinase can Activate NFkappaB in Both a Kinase-Dependent and a Kinase Independent Manner,” J. Biol. Chem. 278:21526-21533 (2003), which is hereby incorporated by reference in its entirety), together with the pBabe-puro for selection. Individual clones, selected with 1.5 μg/m puromycin, were assessed for NF-κB-luciferase reporter activation by TNFα and PMA. […]

[2] = tested on: p53 signaling in OCI-Ly10 cells; test: Nuclear p53 and p21 expression, western blot; format: cell-based; conditions: 3.5 hours
Procedure: OCI-Ly10 cells were treated with indicated concentrations of NSC697923 for 3.5 hours. The level of p53 in the nuclear extract and the level of p21 in the whole cell lysates were analyzed by western blotting.

Ubc13 = target: T1, Ubc13 (Homo sapiens, UniProt P61088); test: In vitro Ubc13~Ub thioester conjugate formation; format: biochemical; conditions: E1, Ubc13-Uev1A, ubiquitin, ATP
T1 construct: purchased Boston Biochem Inc E2-600 (Ubc13); E2-662 (Uev1A)
T1 sequence (P61088 whole entry): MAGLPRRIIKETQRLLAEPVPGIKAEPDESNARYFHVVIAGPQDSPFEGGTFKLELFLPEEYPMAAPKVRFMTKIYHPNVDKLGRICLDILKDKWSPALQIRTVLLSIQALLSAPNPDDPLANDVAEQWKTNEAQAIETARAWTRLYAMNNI
T1 sequence (Q13404 whole entry partner): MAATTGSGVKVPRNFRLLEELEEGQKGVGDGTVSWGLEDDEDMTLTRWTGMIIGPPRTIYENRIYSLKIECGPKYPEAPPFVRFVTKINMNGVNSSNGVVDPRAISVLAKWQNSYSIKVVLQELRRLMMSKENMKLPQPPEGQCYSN
Procedure: Purified GST or GST-Ubc13 fusion proteins were incubated with the cell extract prepared from OCI-Ly10 cells with or without the presence of NSC697923 as indicated. The amounts of Uev1A protein associated with GST or GST-Ubc13 were analyzed by western blotting. The first lane was loaded with 8% of the input cell lysate. […] The assay was carried out as described in FIG. 4A, except that the loading buffer for SDS-PAGE gel contains no reducing agent, unless otherwise specified, and the reaction was analyzed by western blotting with a Ubc13-specific antibody. […] The assay was carried out as in FIG. 5B, except that UbcHSc, instead of Ubc13 and Uev1A, was used in the ubiquitination reaction and that a UbcHSc antibody was used for western blot analysis.
For detecting the E2-ubiquitin (Ubc13˜Ub or UbcH5c˜Ub) thioester conjugates, the reactions were carried out as described above without GST-TRAF6. The reactions were terminated with the SDS-sample buffer without a reducing agent unless specified. The products were analyzed by western blotting with an anti-Ubc13 or anti-UbcHSc antibody as indicated.

Cc1ccc(S(=O)(=O)c2ccc([N+](=O)[O-])o2)cc1 [NSC697923, 2-nitro-5-tosylfuran]
Annexin-positive (apoptotic) cells (primary DLBCL cells): increase in Annexinpositive (apoptotic) cells | PMA-induced NF-κB activation (luciferase reporter) [1]: selective inhibitory effect; also recorded: inhibits NF-κB activation induced by PMA | nuclear level of p53 protein [2]: increased | p21 expression [2]: increased | formation of Ubc13~Ub thioester conjugate (Ubc13): inhibited formation of this thioester conjugate
